In general, IC50 refers to the concentration at which inhibition is half-maximal.

Experimental findings from PMC5437278, “Targeting the deubiquitinase STAMBP inhibits NALP7 inflammasome activity” (Nature Communications, 2017) are described below.

The target of the assay is T1, STAMBP (purified, recombinant) (Homo sapiens, UniProt O95630).
T1 construct: commercial purified recombinant STAMBP (R&D Systems E-548B)
T1 sequence (O95630 1-424): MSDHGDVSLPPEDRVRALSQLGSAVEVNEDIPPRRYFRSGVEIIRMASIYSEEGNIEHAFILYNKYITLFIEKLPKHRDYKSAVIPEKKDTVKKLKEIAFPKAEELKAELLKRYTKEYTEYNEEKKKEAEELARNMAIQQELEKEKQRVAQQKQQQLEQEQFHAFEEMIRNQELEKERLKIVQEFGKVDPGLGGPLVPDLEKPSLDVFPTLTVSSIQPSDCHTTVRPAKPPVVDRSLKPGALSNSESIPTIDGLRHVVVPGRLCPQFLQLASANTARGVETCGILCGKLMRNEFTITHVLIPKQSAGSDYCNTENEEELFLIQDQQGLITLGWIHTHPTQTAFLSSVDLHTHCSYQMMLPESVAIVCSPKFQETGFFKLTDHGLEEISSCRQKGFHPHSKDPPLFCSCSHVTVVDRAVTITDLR
Description: in vitro DUB assay, cleavage of K63-linked di-ubiquitin to mono-Ub, immunoblot. It is filed as biochemical. The conditions noted are these: 200 nM K63-linked di-Ub, 25 nM STAMBP, pH 7.5, 37 °C, 2 h; competitive. Background: In western blotting, separated proteins are transferred to a membrane and probed.

As to BC-1471, the IC50 was 330 nM.
